Data from PubChem BioAssay AID330 (DTP/NCI, 2004).
“And” between values parts separate entries of the source, which are not always exact repeats. Equal entries are not always repeated. Toxic doses and inconclusive results are not listed.

Test system: P388 leukemia ip, CD2F1 mice, survival T/C
Test: NCI In Vivo Anticancer Drug Screen. Data for tumor model P388 Leukemia (intraperitoneal) in CD2F1 (CDF1) mice
Details: endpoint: median survival time, higher = longer survival
How it was run: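 Mice carrying the transplanted tumor received test compound or vehicle. Survival was recorded in each group, and the value is the treated-group measurement divided by that of the vehicle-treated control group.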

[1] = dose: 50.0 mg/kg/injection, schedule: Q01DX009 (ip), vehicle: saline with Tween-80
[2] = dose: 100.0 mg/kg/injection, schedule: Q01DX009 (ip), vehicle: saline with Tween-80
[3] = dose: 200.0 mg/kg/injection, schedule: Q01DX009 (ip), vehicle: saline with Tween-80
[4] = dose: 12.5 mg/kg/injection, schedule: Q01DX009 (ip), vehicle: saline
[5] = dose: 25.0 mg/kg/injection, schedule: Q01DX009 (ip), vehicle: saline
[6] = dose: 50.0 mg/kg/injection, schedule: Q01DX005 (ip), vehicle: Klucel (hydroxypropylcellulose) (HPC)
[7] = dose: 100.0 mg/kg/injection, schedule: Q01DX005 (ip), vehicle: Klucel (hydroxypropylcellulose) (HPC)
[8] = dose: 200.0 mg/kg/injection, schedule: Q01DX005 (ip), vehicle: Klucel (hydroxypropylcellulose) (HPC)

## CN(C)C=Nc1ccccc1C#N
[1]
  T/C: 105 % of control
[2]
  T/C: 106 % of control
[3]
  T/C: 97 % of control

## CCN(CC#N)c1ccc(C=Nc2ccc(OC)cc2OC)cc1
[1]
  T/C: 91 % of control
[2]
  T/C: 93 % of control
[3]
  T/C: 97 % of control

## CNS(=O)(=O)c1ccc(Cl)cc1
dose: 3.13 mg/kg/injection, schedule: Q01DX009 (ip), vehicle: saline
  T/C: 94 % of control
dose: 6.25 mg/kg/injection, schedule: Q01DX009 (ip), vehicle: saline
  T/C: 99 % of control
[4]
  T/C: 98 % of control
[5]
  T/C: 98 % of control

## COC(=O)Cn1/c(=N\N=C(/C)c2ccccc2)sc2ccccc21
dose: 100.0 mg/kg/injection, schedule: Q01DX001 (ip), vehicle: saline with Tween-80
  T/C: 102 % of control
dose: 200.0 mg/kg/injection, schedule: Q01DX001 (ip), vehicle: saline with Tween-80
  T/C: 99 % of control
dose: 400.0 mg/kg/injection, schedule: Q01DX001 (ip), vehicle: saline with Tween-80
  T/C: 99 % of control

## CC(C)c1cc2c(cc1O)C[C@@]1(O)CCCC(C)(C)C1CC2 (some centres not stated)
dose: 7.0 mg/kg/injection, schedule: Q01DX005 (ip), vehicle: other
  T/C: 100 % of control
dose: 14.0 mg/kg/injection, schedule: Q01DX005 (ip), vehicle: other
  T/C: 100 % of control
dose: 28.0 mg/kg/injection, schedule: Q01DX005 (ip), vehicle: other
  T/C: 104 % of control
dose: 56.0 mg/kg/injection, schedule: Q01DX005 (ip), vehicle: other
  T/C: 99 % of control

## CC[n+]1ccc(Nc2ccc(/C=C/c3ccc4cc(Nc5cc[n+](CC)cc5)ccc4[n+]3CC)cc2)cc1
dose: 3.3 mg/kg/injection, schedule: Q04DX003 (ip), vehicle: saline sonified
  T/C: 113 % of control

## Nc1nc(N)c2cc(CNc3ccc(Cl)c(Cl)c3)ccc2n1
dose: 6.25 mg/kg/injection, schedule: Q01DX009 (ip), vehicle: saline with Tween-80
  T/C: 107 % of control
dose: 12.5 mg/kg/injection, schedule: Q01DX009 (ip), vehicle: saline with Tween-80
  T/C: 110 % of control
dose: 25.0 mg/kg/injection, schedule: Q01DX009 (ip), vehicle: saline with Tween-80
  T/C: 109 % of control

## Cc1cc(C)c[n+]([O-])c1
[4]
  T/C: 111 % of control
[5]
  T/C: 111 % of control
dose: 50.0 mg/kg/injection, schedule: Q01DX009 (ip), vehicle: saline
  T/C: 111 % of control

## CC(=O)OCC(COC(C)=O)=C1N=C(c2ccccc2)OC1=O
dose: 100.0 mg/kg/injection, schedule: Q04DX003 (ip), vehicle: saline with Tween-80
  T/C: 100 % of control
dose: 200.0 mg/kg/injection, schedule: Q04DX003 (ip), vehicle: saline with Tween-80
  T/C: 100 % of control
dose: 400.0 mg/kg/injection, schedule: Q04DX003 (ip), vehicle: saline with Tween-80
  T/C: 100 % of control

## CCCC(NC)C(CC)CN (configuration not stated)
[1]
  T/C: 95 % of control
[2]
  T/C: 100 % of control

## CN=C(NC)c1ccc(NC(=O)c2ccc(C(=O)Nc3ccc(C(=NC)NC)c(C)c3)cc2)cc1C
dose: 6.25 mg/kg/injection, schedule: Q01DX005 (ip), vehicle: saline with Tween-80
  T/C: 111 % of control and 118 % of control
dose: 12.5 mg/kg/injection, schedule: Q01DX005 (ip), vehicle: saline with Tween-80
  T/C: 119 % of control
dose: 25.0 mg/kg/injection, schedule: Q01DX005 (ip), vehicle: saline with Tween-80
  T/C: 164 % of control and 173 % of control

## Clc1ccc2c(c1)nc(-c1ccccn1)n2CCc1ccccn1
dose: 25.0 mg/kg/injection, schedule: Q01DX005 (ip), vehicle: Klucel (hydroxypropylcellulose) (HPC)
  T/C: 99 % of control
[6]
  T/C: 104 % of control
[7]
  T/C: 101 % of control
[8]
  T/C: 93 % of control

## CN(C)CS/C(=N\C(O)C(Cl)(Cl)Cl)NC(O)C(Cl)(Cl)Cl (configuration not stated)
[6]
  T/C: 97 % of control
[7]
  T/C: 99 % of control
[8]
  T/C: 99 % of control

## COc1ccccc1N=C(C1=C(O)c2ccccc2C1=O)c1ccccc1
dose: 100.0 mg/kg/injection, schedule: Q04DX002 (ip), vehicle: saline with Tween-80
  T/C: 100 % of control
dose: 200.0 mg/kg/injection, schedule: Q04DX002 (ip), vehicle: saline with Tween-80
  T/C: 102 % of control
dose: 400.0 mg/kg/injection, schedule: Q04DX002 (ip), vehicle: saline with Tween-80
  T/C: 94 % of control
